Results from PMC2909451 (European journal of pharmaceutical sciences : official …, 2010).
Where a name gives a salt, the structure may show the parent alone.

Key:
[1] = biological target: T1, human organic cation/carnitine transporter (SLC22A5, OCTN2) (Homo sapiens, UniProt O76082); assay: OCTN2 cis-inhibition of L-carnitine uptake in OCTN2-MDCK cells; assay type: cell-based; settings: for potency estimated from few doses: read-out: Ki estimated from one concentration
T1 sequence (O76082 1-557): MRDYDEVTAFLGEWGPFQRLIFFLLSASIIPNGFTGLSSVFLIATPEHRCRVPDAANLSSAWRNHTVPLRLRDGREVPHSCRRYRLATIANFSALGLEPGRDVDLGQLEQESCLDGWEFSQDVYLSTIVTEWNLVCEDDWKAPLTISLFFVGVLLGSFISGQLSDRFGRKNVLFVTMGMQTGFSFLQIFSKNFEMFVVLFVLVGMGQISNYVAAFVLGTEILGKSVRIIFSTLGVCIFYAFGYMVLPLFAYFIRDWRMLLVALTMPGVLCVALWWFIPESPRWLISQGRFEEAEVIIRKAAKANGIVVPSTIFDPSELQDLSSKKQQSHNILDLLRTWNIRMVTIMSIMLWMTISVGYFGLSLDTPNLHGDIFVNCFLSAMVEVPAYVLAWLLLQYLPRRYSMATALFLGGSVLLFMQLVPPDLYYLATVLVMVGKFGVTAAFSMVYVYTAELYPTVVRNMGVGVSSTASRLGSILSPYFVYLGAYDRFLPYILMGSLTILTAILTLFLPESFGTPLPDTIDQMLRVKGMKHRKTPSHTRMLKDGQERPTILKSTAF

ASBT = ASBT (Homo sapiens, UniProt Q12908); settings: substrate uptake studies
EAAT4 = EAAT4 (Rattus norvegicus, UniProt O35921); settings: substrate uptake studies
OCTN2 = biological target: T2, OCTN2 (Homo sapiens, UniProt O76082); assay: L-carnitine uptake study; assay type: cell-based; settings: substrate uptake studies
T2 sequence (O76082 1-557): T1 sequence (O76082 1-557)

[2] = biological target: T3, excitatory amino acid transporters (SLC1A6, EAAT4) (Rattus norvegicus, UniProt O35921); assay: EAAT4 cis-inhibition of glutamate uptake in stably transfected HEK 293 cells; assay type: cell-based; settings: for potency estimated from few doses: HEK293, read-out: Ki estimated from one concentration
T3 sequence (O35921 1-561): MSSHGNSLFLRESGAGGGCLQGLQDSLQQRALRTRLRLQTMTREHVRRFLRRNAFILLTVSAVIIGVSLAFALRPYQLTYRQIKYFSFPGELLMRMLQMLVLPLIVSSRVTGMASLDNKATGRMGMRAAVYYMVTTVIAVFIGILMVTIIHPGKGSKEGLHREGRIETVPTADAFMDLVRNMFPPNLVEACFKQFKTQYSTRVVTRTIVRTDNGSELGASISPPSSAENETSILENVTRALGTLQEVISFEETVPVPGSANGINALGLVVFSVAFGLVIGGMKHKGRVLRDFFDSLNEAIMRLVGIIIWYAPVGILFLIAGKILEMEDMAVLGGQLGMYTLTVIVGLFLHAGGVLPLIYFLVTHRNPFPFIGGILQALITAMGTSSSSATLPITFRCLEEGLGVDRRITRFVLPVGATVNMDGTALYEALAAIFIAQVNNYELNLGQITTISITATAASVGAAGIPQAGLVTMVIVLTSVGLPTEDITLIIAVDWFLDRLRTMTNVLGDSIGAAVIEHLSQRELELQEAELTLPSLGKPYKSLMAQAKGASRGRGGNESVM

[3] = biological target: T4, human apical sodium-dependent transporter (SLC10A2, ASBT) (Homo sapiens, UniProt Q12908); assay: ASBT cis-inhibition of taurocholate uptake in ASBT-MDCK cells; settings: for Ki: mean±S.E.
T4 sequence (Q12908 1-348): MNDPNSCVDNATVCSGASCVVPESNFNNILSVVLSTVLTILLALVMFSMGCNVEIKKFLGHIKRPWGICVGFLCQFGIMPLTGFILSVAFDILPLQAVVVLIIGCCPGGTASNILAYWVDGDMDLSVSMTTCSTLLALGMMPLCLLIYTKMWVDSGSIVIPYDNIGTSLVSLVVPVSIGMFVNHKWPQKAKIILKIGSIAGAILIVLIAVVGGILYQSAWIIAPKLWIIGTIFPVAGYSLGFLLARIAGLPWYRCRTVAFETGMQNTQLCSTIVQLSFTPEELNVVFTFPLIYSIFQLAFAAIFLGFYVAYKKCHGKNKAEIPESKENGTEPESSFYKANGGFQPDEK

[4] = Precipitation / solubility of inhibitor in transport buffer; assay type: physicochemical; settings: for precipitation / solubility in donor solution: ASBT inhibition study, 1-[…] DMSO for low water soluble compounds; for highest concentration at which no precipitation was observed: transport buffer of the ASBT inhibition study, precipitation observed above it
[5] = biological target: T4, human apical sodium-dependent transporter (SLC10A2, ASBT); settings: 50 µM
[6] = Ki, inhibitor concentration range 0-10 μM
[7] = Ki, inhibitor concentration range 0-20 μM
[8] = Ki, inhibitor concentration range 0-50 μM
[9] = Ki, inhibitor concentration range 0-100 μM
[10] = Ki, inhibitor concentration range 0-200 μM
[11] = Ki, inhibitor concentration range 0-500 μM
[12] = Reference Ki, from the comprehensive inhibition profile
[13] = Ki, inhibitor concentration range 0-5 μM
[14] = Ki, inhibitor concentration range 0-[…]

## CC[C@]1(O)C[C@H]2CN(CCc3c([nH]c4ccccc34)[C@@](C(=O)OC)(c3cc4c(cc3OC)N(C=O)[C@H]3[C@@](O)(C(=O)OC)[C@H](OC(C)=O)[C@]5(CC)C=CCN6CC[C@]43[C@@H]65)C2)C1 [Vincristine sulfate]
[1]; [6]
  Ki: 14.9 ± 2 µM
[1]; [7]
  Ki: 14.5 ± 1.2 µM
[1]; [8]
  Ki: 14.6 ± 1.5 µM
[1]; [9]
  Ki: 15.7 ± 1.6 µM
[1]; [10]
  Ki: 15.9 ± 1.5 µM
[1]; [11]
  Ki: 15.9 ± 1.4 µM
[1]; [12]
  Ki: 15.9 µM
[1]
  potency estimated from few doses: 14.7 ± 3.1 µM

## C[C@H](CCC(=O)NCCS(=O)(=O)O)[C@H]1CC[C@H]2[C@@H]3[C@H](O)C[C@@H]4C[C@H](O)CC[C@]4(C)[C@H]3C[C@H](O)[C@]12C [taurocholate]
ASBT
  Kt (Michaelis-Menten constant for transporter mediated transport): 5.03 µM

## COc1cccc2c1C(=O)c1c(O)c3c(c(O)c1C2=O)C[C@@](O)(C(C)=O)C[C@@H]3O[C@H]1C[C@H](N)[C@H](O)[C@H](C)O1 [Daunorubicin hydrochloride, daunorubicin hydrochloride]
[1]; [9]
  Ki: 424 ± 122 µM
[1]; [10]
  Ki: 375 ± 63 µM
[1]; [11]
  Ki: 443 ± 56 µM
[1]; Ki, inhibitor concentration range 0-1000 μM
  Ki: 484 ± 48 µM
[1]; Ki, inhibitor concentration range 0-1500 μM
  Ki: 496 ± 41 µM
[1]; [12]
  Ki: 496 µM
[1]
  potency estimated from few doses: 488 ± 47 µM

## N[C@@H](CCC(=O)O)C(=O)O [glumatate, glutamate]
EAAT4
  Kt (Michaelis-Menten constant for transporter mediated transport): 2.02 µM

## C[N+](C)(C)C[C@H](O)CC(=O)[O-] [L-carnitine]
OCTN2
  Kt (Michaelis-Menten constant for transporter mediated transport): 5.33 µM

## N[C@H](CC(=O)O)C(=O)O [D-Aspartic acid]
[2]
  potency estimated from few doses: 8.4 ± 0.81 µM
[2]; [13]
  Ki: 9.06 ± 1.51 µM
[2]; [6]
  Ki: 8.72 ± 0.76 µM
[2]; [7]
  Ki: 8.58 ± 0.59 µM
[2]; [8]
  Ki: 8.95 ± 0.57 µM
[2]; [9]
  Ki: 9.21 ± 0.57 µM
[2]; [10]
  Ki: 9.54 ± 0.75 µM
[2]; [12]
  Ki: 9.54 µM

## CCOC(=O)C1=C(C)NC(C)=C(C(=O)OC)C1c1cccc([N+](=O)[O-])c1 (stereo not shown) [nitrendipine]
[3]; inhibitor concentration range 0-50 μM
  Ki: 43.9 µM
[4]
  precipitation / solubility in donor solution: incomplete solubility at higher drug concentrations
  highest concentration at which no precipitation was observed: 50 µM
[5]
  inhibition: 39.7%

## N[C@@H](CC(=O)O)C(=O)O [L-Aspartic acid]
[2]
  potency estimated from few doses: 3.03 ± 0.3 µM
[2]; [13]
  Ki: 1.72 ± 0.14 µM
[2]; [6]
  Ki: 1.77 ± 0.12 µM
[2]; [7]
  Ki: 1.83 ± 0.14 µM
[2]; [8]
  Ki: 1.88 ± 0.18 µM
[2]; [9]
  Ki: 1.92 ± 0.23 µM
[2]; [14]
  Ki: 2.01 ± 0.13 µM
[2]; [12]
  Ki: 1.92 µM

## C[N+](C)(C)C[C@@H](O)CC(=O)[O-] [D-carnitine]
[1]; Ki, inhibitor concentration range 0-1 μM
  Ki: 8.9 ± 4 µM
[1]; [13]
  Ki: 10.2 ± 1.1 µM
[1]; [6]
  Ki: 11.5 ± 0.9 µM
[1]; [7]
  Ki: 11.8 ± 0.7 µM
[1]; [8]
  Ki: 12 ± 0.6 µM
[1]; [9]
  Ki: 12.1 ± 0.5 µM
[1]; [10]
  Ki: 12.2 ± 0.5 µM
[1]; [14]
  Ki: 9 ± 1.5 µM
[1]; [12]
  Ki: 12.2 µM
[1]
  potency estimated from few doses: 12.2 ± 0.5 µM

## Cc1cccc(Nc2ccncc2S(=O)(=O)NC(=O)NC(C)C)c1 [torsemide]
[3]; inhibitor concentration range 0-1000 μM
  Ki: 460 µM
[3]; read-out: percent taurocholate inhibited at the highest inhibitor concentration
  inhibition at 1000 µM: 58.4%
[4]
  precipitation / solubility in donor solution: incomplete solubility at higher drug concentrations
  highest concentration at which no precipitation was observed: 1000 µM
